What all share (format): cell-based, mouse
One experiment deals with Gpr132. The experiment is described as follows: calcium mobilization assay in BMDMs. The settings on record: WT or Gpr132-KO BMDMs stimulated with 25 mM. On the procedure: FIG. 27. […] WT or Gpr132-KO BMDMs were stimulated with 25 mM lactate (Left) or HCl (Right) (n=3).
To determine whether Gpr132 is required for lactate signaling in macrophages, a calcium mobilization assay was performed. […] First, lactate levels in the CM of distinct cancer cell lines were measured using a Vitros 250 chemistry analyzer. […] Second, the effects of blocking lactate production from EO771 and 4T1.2 cells by oxamic acid, an inhibitor of lactate dehydrogenase was tested.
A general note: Calcium flux is commonly read through the fluorescence of an indicator in the cells.

Experiment [1] concerns bone marrow derived macrophages (BMDMs). Briefly: macrophage M2-like morphology (elongation). As to conditions: cancer cells treated with oxamic acid 90 mM for 3 days before CM harvest. An excerpt: FIGS. 9A-9D. Tumor-derived factors activate M2-like macrophages via Gpr132. (FIG. 9A) The pH values of conditioned media (CM) from cancer cells or macrophages (n=5-8); *p<0.05, ****p<0.001 compared with RAW 264.7 macrophage CM. (FIG. 9B) Western blot for CD206 and Gpr132 in RAW 264.7 macrophages after treatment with indicated cancer cell CM for 24 hrs. Actin was used as a loading control. The CD206/actin or Gpr132/actin ratio was quantified and shown as fold changes compared to control (n=3); *p<0.05, ***p<0.005 compared with control. (FIG. 9C) Flow cytometry analysis of Gpr132 and CD206 in BMDMs with or without EO771 CM treatment. The experiments were repeated twice and the representative results are shown. (FIG. 9D) Immunofluorescence staining for CD11b in WT and Gpr132-KO BMDMs after differentiation in the absence or presence of 30% EO771 CM or 4T1.2 CM for 7 days. Elongated macrophage morphology indicates a M2-like phenotype. Nuclei were stained with DAPI. Scale bar, 25 μm. WT, wild-type; Gpr132-KO, Gpr132 knockout.
FIGS. 10A-10F. […] LC-MS was used to quantify lactate in the eluent of Gpr132 co-IP. (Left) Representative LC-MS chromatograms; (Right) Quantification of relative lactate binding (n=3). ****p<0.001 compared with WT. […] CD206/actin ratio was quantified and shown as fold changes compared to control (n=3-4); *p<0.05 compared with WT control. […]

Experiment [2] deals with breast cancer cells (4T1.2, EO771). The experiment is described as follows: Boyden chamber assay, cancer cell migration. The settings on record: oxamic acid 90 mM pre-treatment; WT macrophages. On the procedure:
(§1) FIGS. 11A-11C. Lactate-activated macrophage promotes cancer cell adhesion, migration and invasion via Gpr132. (FIG. 11A) Adherence assays. 4T1.2 cells were suspended in fibronectin ([…]) pre-coated plates with CM from spleen-derived macrophages (mf) that were treated with 4T1.2 CM or lactate (5 mM) with or without Gpr132 antibody (6 mg/ml) or normal IgG (6 mg/ml) for 10 min. The adhered cells were stained with crystal violet, dissolved in 1% Triton X-100 and measured by OD590. (FIGS. 11B-11C) Boyden chamber assay of cancer cell migration and invasion. 4T1.2 cells (B) or EO771 cells (FIG. 11C) were plated on the upper chamber inserts, with untreated (Control), 4T1.2 CM-activated or lactate-activated spleen-derived WT or Gpr132-KO macrophages plated in the lower chambers. For invasion assay, the inserts were pre-coated with 60 μl matrigel. After migration for 6 hrs (FIG. 11B) or invasion for 24 hrs (FIG. 11C), the migrated or invaded cells were stained with crystal violet and counted as cells per field of view under microscope (n=3-4); For (FIG. 11C), the first bar of each data set of the bar graphs represents the control mf, and the second bar represents Gpr132KO; *p<0.05; **p<0.01; ***p<0.005; ****p<0.001. Scale bar, 500 μm.
(§2) FIGS. 23A-23B. Cancer cell-derived lactate activates macrophages to promote cancer cell migration and invasion via Gpr132. (FIGS. 23A-23B) Boyden chamber assay. EO771 or 4T1.2 cells were cultured in the presence or absence of oxamic acid (90 mM) for 3 days. CM was harvested after the cells were cultured for another 24 hrs without oxamic acid. As a rescue, CM of oxamic acid-treated EO771 or 4T1.2 cells was supplemented with exogenous lactate. […] After migration for 6 hrs (FIG. 23A) or invasion for 24 hrs (FIG. 23B), the migrated or invaded cells were stained with crystal violet and counted as cells per field of view under microscope (n=3-4); for (FIG. 23A), the bars in each data set of the bar graph represent, from left to right, control, EO771, Oxamic acid, and Oxamic acid+Lactate; for (FIG. 23B), the bars in each data set of the bar graph represent, from left to right, control, 4T1.2CM, Oxamic acid, and Oxamic acid+Lactate; *p<0.05; ****p<0.001. […]
Migration or invasion of breast cancer cells was examined using 24-well Boyden chambers (Corning, Corning, N.Y.) with transwell inserts of […] pore size, coated without (for migration) or with matrigel (for invasion) as previously reported. […] The migrated or invaded cells were fixed with methanol and stained with crystal violet (0.05%, sigma), and then counted as cells per field of view under microscope or measured as OD570 after crystal violet was dissolved.

The next experiment concerns EO771 and 4T1.2 cells. Briefly: lactate and pH in cancer cell conditioned media. The settings on record: oxamic acid 90 mM for 3 days, CM after another 24 hrs. On the procedure: FIGS. 18A-18E. Lactate secreted by EO771 and 4T1.2 cells is responsible for the low pH in their CM. (FIG. 18A) Lactate levels in the conditional media (CM) from various cancer cells (n=3); *p<0.05, ****p<0.001 compared with EO771 CM; #### p<0.001 compared with 4T1.2 CM. (FIG. 18B) Lactate levels in EO771 CM at the indicated time point of culture (n=3). (FIG. 18C) Lactate levels in the whole CM, <3 kDa and >3 kDa fractions of CM from 24 h EO771 cell cultures (n=3). (FIGS. 18D-18E) EO771 and 4T1.2 cells were treated with or without oxamic acid (90 mM) for 3 days. CM was harvested after the cells were cultured for another 24 hrs without oxamic acid before lactate (FIG. 18D) and pH (FIG. 18E) quantification (n=3). **p<0.01, ***p<0.005, ****p<0.001.
RAW264.7, EO771, 4T1.2, PY8119, PY230, SCP-4, SCP-6, SCP-28, MDA-1883, MDA-2287 and B16F10 cell lines were cultured in culture media containing 10% FBS (Sigma) and 1:100 antibiotic-antimycotic (Gibco). Conditioned media were obtained from serum-free media after culturing cells for 24 hrs or as indicated. Bone marrow-derived macrophages (BMDMs) and spleen-derived macrophages from WT and Gpr132-KO mice were cultured as previously described. Lactate in the conditioned media was quantified using a Vitros 250 chemistry analyzer at the UT Southwestern Metabolic Phenotyping Core.

Experiment [3] has as its system breast cancer cells (EO771, 4T1.2). The experiment is described as follows: Boyden chamber assay, cancer cell invasion (matrigel). The settings on record: oxamic acid 90 mM pre-treatment; WT macrophages. On the procedure: as §1
as §2, with “acid.” for “acid. As a rescue, CM of oxamic acid-treated EO771 or 4T1.2 cells was supplemented with exogenous lactate.”

A further experiment has as its system macrophages. Briefly: M2 marker expression in macrophages (Western blot, RT-qPCR, flow cytometry). As to conditions: IL-4 10 ng/ml for 16 hrs, spleen macrophages. On the procedure:
After blocking with 10% BSA for 10 min, cells were incubated with anti-CD206 (Rabbit polyclonal, Abcam) or anti-Gpr132 (Rabbit polyclonal, Sigma) antibodies (1:100) for 30 min at 4° C., washed with cold PBS, and then incubated with FITC-conjugated secondary antibodies (1:100) for 30 min at 4° C. After washing twice using cold PBS, cells were analyzed by flow cytometer (Becton Dickinson). RNA was isolated from cells or mouse tissues using Trizol (Invitrogen) following the manufacturer's instructions. RNA (200-500 ng) was first treated with RNase-free DNase I using the DNA-free kit (Ambion) to remove all genomic DNA, and then reverse-transcribed into cDNA using an ABI High Capacity cDNA RT Kit (Invitrogen). The cDNA was analyzed using real-time quantitative PCR (SYBR Green, Invitrogen) with an Applied Biosystems 7900 Sequence Detection System. Each reaction was performed in triplicate in a 384-well format. The expression of each gene was normalized by that of mouse ribosomal protein L19. Samples of 20 μg protein were applied to SDS polyacrylamide gels. After protein transfer, membranes were incubated with antibodies for […] (rabbit polyclonal, Santa Cruz Biotechnology), CD206, Gpr132, or β-actin (mouse monoclonal, Sigma) (1:1000) overnight at 4° C. Membranes were washed, and then incubated with HRP-conjugated secondary antibodies (1:1000) for 1 hr at room temperature before signal detection by chemiluminescence (Pierce). Densitometric quantification was performed by Image-Pro Plus 6.0 software (Media Cybernetics). PathScan Akt Signaling Antibody Array (Cell Signaling) was incubated with macrophage proteins and analyzed following kit instructions.

Structures can show the parent of a compound that is named as a salt.

Turning to `Cl` [hydrochloric acid (HCl), hydrochloric acid], in the experiment on Gpr132, the “effect of Gpr132 deletion on triggered calcium mobilization” value is reported as “not”.

For the molecule `NC(=O)C(=O)O` [oxamic acid], the “ability of EO771 or 4T1.2 CM to induce M2-like morphology in WT BMDMs” value in experiment [1] is “completely abolished”. Moreover, the “effects of CM-activated WT macrophages on cancer cell migration after pre-treatment of cancer cells” value in experiment [2] is on record as “abolished”. Besides, the “lactate in the CM” value in the experiment on EO771 and 4T1.2 cells is “depleted”. The “effects of CM-activated WT macrophages on cancer cell invasion after pre-treatment of cancer cells” value in experiment [3] was “abolished”.

B1: IL-4: standard T helper 2 cytokine used to trigger macrophage M2 activation (protein, UniProt P05112 25-153, looked up)
Interleukin-4: HKCDITLQEIIKTLNSLTEQKTLCTELTVTDIFAASKNTTEKETFCRAATVLRQFYSHHEKDTRCLGATAQQFHRHKQLIRFLKRLDRNLWGLAGLNSCPVKEANQSTLENFLERLKTIMREKYSKCSS
For B1, in the experiment on macrophages, the “induction of M2 markers (Arg-1, CCL17, CCL22, PPAR-γ, YM-1, YM-2), WT vs Gpr132-KO macrophages” value was “equally well”.
